Data as given in article PMC4879473 (CPT: Pharmacometrics & Systems Pharmacology, 2016).

Experiments:
CYP3A [1] = target: CYP3A (Homo sapiens, UniProt P08684); conditions: ciprofloxacin at 2 mM, in vitro; cited from earlier work
CYP3A/P‐gp = conditions: clinical DDI studies; cited from earlier work
P‐gp = conditions: reported value, P-gp-mediated efflux; cited from earlier work
[2] = cited from earlier work
CYP3A4 = test: Retrograde calculation of naloxegol metabolic intrinsic clearance; set-up: species or system human
[3] = cited from earlier work; remark: listed apart in the source
CYP3A [4] = conditions: individual CYP enzymes and human liver microsomes in vitro; cited from earlier work
[5] = Apparent permeability of naloxegol in Caco-2 cells; format: in vitro ADME; conditions: human
[6] = Naloxegol blood/plasma, microsomal and gut binding inputs; format: in vitro ADME; conditions: plasma
[7] = Physicochemical properties of naloxegol; conditions: Experimental data

Chain of CYP3A (Homo sapiens, UniProt P08684) (P08684 2-503): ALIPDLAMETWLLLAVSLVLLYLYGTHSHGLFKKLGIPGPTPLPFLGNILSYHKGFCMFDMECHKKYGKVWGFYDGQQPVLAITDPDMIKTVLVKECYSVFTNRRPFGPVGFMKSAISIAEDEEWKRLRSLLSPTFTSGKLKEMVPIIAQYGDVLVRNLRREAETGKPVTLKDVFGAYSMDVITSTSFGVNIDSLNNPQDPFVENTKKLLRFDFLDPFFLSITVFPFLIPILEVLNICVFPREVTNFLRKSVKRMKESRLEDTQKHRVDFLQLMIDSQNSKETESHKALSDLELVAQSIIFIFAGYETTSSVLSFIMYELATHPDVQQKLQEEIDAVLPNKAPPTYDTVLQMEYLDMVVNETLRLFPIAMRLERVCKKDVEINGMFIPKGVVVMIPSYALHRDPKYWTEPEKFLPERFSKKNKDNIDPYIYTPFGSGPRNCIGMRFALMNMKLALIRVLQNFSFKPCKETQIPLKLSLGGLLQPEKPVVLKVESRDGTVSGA

O=C(O)c1cn(C2CC2)c2cc(N3CCNCC3)c(F)cc2c1=O [Ciprofloxacin, ciprofloxacin]
inhibition of erythromycin‐mediated CYP3A activity (CYP3A [1]): 65%

CC(=O)N1CCN(c2ccc(OCC3COC(Cn4ccnc4)(c4ccc(Cl)cc4Cl)O3)cc2)CC1 (centres unmarked) [Ketoconazole, ketoconazole]
observed increase of naloxegol AUC (CYP3A/P‐gp): 1,185%

C[C@H]1O[C@@H](O[C@H]2[C@@H](O)C[C@H](O[C@H]3[C@@H](O)C[C@H](O[C@H]4CC[C@@]5(C)[C@H](CC[C@@H]6[C@@H]5C[C@@H](O)[C@]5(C)[C@@H](C7=CC(=O)OC7)CC[C@]65O)C4)O[C@@H]3C)O[C@@H]2C)C[C@H](O)[C@@H]1O [digoxin]
in vitro transporter‐mediated intrinsic clearance (P‐gp): 2.5 µL/min

C=CCN1CC[C@]23c4c5ccc(O)c4O[C@H]2[C@@H](OCCOCCOCCOCCOCCOCCOCCOC)CC[C@@]3(O)[C@H]1C5 [naloxegol]
solubility [2]: highly soluble | CYP3A4 CLint (CYP3A4; Retrograde calculation): 0.267 μL/min/pmol protein | microsomal CLint (CYP3A4; human): 36.6 µL/min/mg | parent drug excreted in urine ([3]; 27 mg [14C]naloxegol oral solution, healthy male volunteers): < 6 % of the dose | dose linearity of PK ([3]; dose of up to 1,000 mg): linear or near linear | CLR ([3]; renal clearance from the renal impairment study): 4.74 L/h | CLpo ([3]; total clearance after an oral dose, observed in the ketoconazole DDI study): 150 L/h | CYP enzymes metabolizing naloxegol (CYP3A [4]): metabolized primarily by CYP3A | Papp [5]: 4.55 ×10⁻⁶ cm/s | fraction unbound [6]: 0.958 | pKa [7]: 8.45
